Measurements from publication PMC12396409, “Screening and hit evaluation of a microbial metabolite library against the pathogenic Plasmodium falciparum and Toxoplasma gondii parasites” (International Journal for Parasitology: Drugs and Drug …, 2025).
Like-named read-outs stand apart in the source and are kept apart here.

Legend:
[1] = test system: P. falciparum 3D7 parasites; assay: P. falciparum growth inhibition assay, 2-cycle (120 h treatment), delayed-death screen and dose-response; format: cell-based, Plasmodium falciparum
[2] = test system: T. gondii RH strain (RH-Tub-eYFP) tachyzoites; assay: microbe, parasite or virus in culture; format: cell-based, Toxoplasma gondii; settings: 72 h; for percent parasite growth at 2 µg/mL: Toxoplasma gondii
[3] = test system: P. falciparum 3D7 parasites; assay: P. falciparum growth inhibition assay, 1-cycle (72 h treatment), SYBR DNA staining (library screen at 2 μg/mL and dose-response); format: cell-based, Plasmodium falciparum
[4] = P. falciparum, 120 h, screen at 2 μg/mL, replicate 1
[5] = P. falciparum, 120 h, screen at 2 μg/mL, replicate 2
[6] = T. gondii, screen at 2 μg/mL, replicate 1
[7] = T. gondii, screen at 2 μg/mL, replicate 2
[8] = P. falciparum, 72 h, screen at 2 μg/mL, replicate 1
[9] = P. falciparum, 72 h, screen at 2 μg/mL, replicate 2
[10] = library screen at 2 μg/mL, 120 h, % growth, replicate 1
[11] = library screen at 2 μg/mL, 120 h, % growth, replicate 2
[12] = library screen at 2 μg/mL, % growth, replicate 1
[13] = library screen at 2 μg/mL, % growth, replicate 2
[14] = library screen at 2 μg/mL, 72 h, % growth, replicate 1
[15] = library screen at 2 μg/mL, 72 h, % growth, replicate 2
[16] = Plasmodium falciparum, 3D7, 120 h, library screen at 2 μg/mL, 120 h, % growth, replicate 1, read-out: Pf_120h_%Growth_Rep1
[17] = Plasmodium falciparum, 3D7, 120 h, library screen at 2 μg/mL, 120 h, % growth, replicate 2, read-out: Pf_120h_%Growth_Rep2
[18] = library screen at 2 μg/mL, % growth, replicate 1, read-out: Tg_72h_%Growth_Rep1
[19] = library screen at 2 μg/mL, % growth, replicate 2, read-out: Tg_72h_%Growth_Rep2
[20] = Plasmodium falciparum, 3D7, 72 h, library screen at 2 μg/mL, 72 h, % growth, replicate 1, read-out: Pf_72h_%Growth_Rep1
[21] = Plasmodium falciparum, 3D7, 72 h, library screen at 2 μg/mL, 72 h, % growth, replicate 2, read-out: Pf_72h_%Growth_Rep2

SMILES: CCCCCCCCCC[C@@H](O)C[C@]1(O)O[C@H](CC(O)C(O)C(O)C(O)C(O)CC(O)CC(O)CC(O)CC(O)C(C)C(O)C(C)C(O)CC(O)C(C)C(O)C(O)C[C@H](C)C[C@H](C)/C=C(C)/C(O)=C2\C(=O)CN(C)C2=O)[C@@H](O)[C@H](O)[C@@H]1O (stereo partly drawn) [Blasticidin A]
- Pf_120h_%Growth_Rep1 [1, 4]: 135.50%
- Pf_120h_%Growth_Rep2 [1, 5]: 87.28%
- Tg_72h_%Growth_Rep1 [2, 6]: 83.39%
- Tg_72h_%Growth_Rep2 [2, 7]: 93.60%
- Pf_72h_%Growth_Rep1 [3, 8]: 84.79%
- Pf_72h_%Growth_Rep2 [3, 9]: 87.65%

SMILES: NC(=O)C=Cc1ccccc1 [Cinnamamide]
- activity at 2 µg/mL ([1]; Plasmodium falciparum, 3D7, P. falciparum, 120 h, screen at 2 μg/mL, replicate 1, read-out: Pf_120h_%Growth_Rep1): 152%
- activity at 2 µg/mL ([1]; Plasmodium falciparum, 3D7, P. falciparum, 120 h, screen at 2 μg/mL, replicate 2, read-out: Pf_120h_%Growth_Rep2): 94.1%
- percent parasite growth at 2 µg/mL ([2]; read-out: Tg_72h_%Growth_Rep1): 85.6%
- percent parasite growth at 2 µg/mL ([2]; read-out: Tg_72h_%Growth_Rep2): 87.3%
- activity at 2 µg/mL ([3]; Plasmodium falciparum, 3D7, P. falciparum, 72 h, screen at 2 μg/mL, replicate 1, read-out: Pf_72h_%Growth_Rep1): 95%
- activity at 2 µg/mL ([3]; Plasmodium falciparum, 3D7, P. falciparum, 72 h, screen at 2 μg/mL, replicate 2, read-out: Pf_72h_%Growth_Rep2): 81.9%

SMILES: CN1C(=O)c2ccccc2-n2c(nc3ccccc3c2=O)[C@@H]1Cc1ccccc1 [Benzomalvin A]
- Pf_120h_%Growth_Rep1 [1, 10]: 152.22%
- Pf_120h_%Growth_Rep2 [1, 11]: 94.98%
- Tg_72h_%Growth_Rep1 [2, 12]: 76.13%
- Tg_72h_%Growth_Rep2 [2, 13]: 90.69%
- Pf_72h_%Growth_Rep1 [3, 14]: 68.69%
- Pf_72h_%Growth_Rep2 [3, 15]: 85.94%

SMILES: CC(=O)N[C@H](CO)[C@H](O)c1ccc([N+](=O)[O-])cc1 [Corynecin I]
- Pf_120h_%Growth_Rep1 [1, 4]: 83.28%
- Pf_120h_%Growth_Rep2 [1, 5]: 82.34%
- Tg_72h_%Growth_Rep1 [2, 6]: 123.69%
- Tg_72h_%Growth_Rep2 [2, 7]: 87.57%
- Pf_72h_%Growth_Rep1 [3, 8]: 83.09%
- Pf_72h_%Growth_Rep2 [3, 9]: 83.78%

SMILES: CC[C@@H]1C[C@H]2CC[C@H](O2)[C@H](C)C(=O)O[C@@H](C)C[C@@H]2CC[C@@H](O2)[C@@H](C)C(=O)O[C@H](CC)C[C@H]2CC[C@H](O2)[C@H](C)C(=O)O[C@@H](C)C[C@@H]2CC[C@@H](O2)[C@@H](C)C(=O)O1 [Dinactin]
- activity at 2 µg/mL [1, 16]: 15.7%
- activity at 2 µg/mL [1, 17]: 11%
- percent parasite growth at 2 µg/mL [2, 18]: 5.15%
- percent parasite growth at 2 µg/mL [2, 19]: 2.32%
- activity at 2 µg/mL [3, 20]: 3.66%
- activity at 2 µg/mL [3, 21]: -1.84%

SMILES: CC(=O)c1c(O)cc(O)c(C(C)=O)c1O [Diacetylphloroglucinol]
- Pf_120h_%Growth_Rep1 [1, 10]: 64.84%
- Pf_120h_%Growth_Rep2 [1, 11]: 102.18%
- Tg_72h_%Growth_Rep1 [2, 12]: 140.70%
- Tg_72h_%Growth_Rep2 [2, 13]: 94.75%
- Pf_72h_%Growth_Rep1 [3, 14]: 86.52%
- Pf_72h_%Growth_Rep2 [3, 15]: 90.35%

SMILES: NC(=O)C#CC(N)=O [Cellocidin]
- Pf_120h_%Growth_Rep1 [1, 4]: 151.65%
- Pf_120h_%Growth_Rep2 [1, 5]: 95.14%
- Tg_72h_%Growth_Rep1 [2, 6]: 79.59%
- Tg_72h_%Growth_Rep2 [2, 7]: 92.91%
- Pf_72h_%Growth_Rep1 [3, 8]: 102.17%
- Pf_72h_%Growth_Rep2 [3, 9]: 89.58%

SMILES: CS(=O)(=O)c1ccc([C@@H](O)[C@@H](CF)NC(=O)C(Cl)Cl)cc1 [Florfenicol, reference compound]
- 3) Fold change (72 h/120 h) [1]: 5.8
- activity at 2 µg/mL ([1]; Plasmodium falciparum, 3D7, 120 h, P. falciparum, 2 μg/mL, 120 h; read-out: 2) Growth (%) at 120 h): 10.8%
- activity at 2 µg/mL [1, 16]: 12.9%
- activity at 2 µg/mL [1, 17]: 8.65%
- percent parasite growth at 2 µg/mL [2, 18]: 47.1%
- percent parasite growth at 2 µg/mL [2, 19]: 48.9%
- activity at 2 µg/mL ([3]; Plasmodium falciparum, 3D7, 72 h, P. falciparum, 2 μg/mL, 72 h; read-out: 1) Growth (%) at 72 h): 62.4%
- activity at 2 µg/mL [3, 20]: 69.7%
- activity at 2 µg/mL [3, 21]: 55.2%
